Paper PMC6407917, “Identification of GSK3186899/DDD853651 as a Preclinical Development Candidate for the Treatment of Visceral Leishmaniasis” (Journal of Medicinal Chemistry, 2018)

Experiments:
Test in all cases: biochemical
Parameters in all cases: species or system HEK293/K-562/placenta mixed human extract; Kinobeads chemoproteomic competition binding, quantified by TMT LC-MS/MS, dose response up to 20 uM
ARAF = ARAF (Homo sapiens, UniProt P10398)
CDKL5 = CDKL5 (Homo sapiens, UniProt O76039)
CSNK1A1 = CSNK1A1 (Homo sapiens, UniProt P48729)
CSNK2B = CSNK2B (Homo sapiens, UniProt P67870)
DDR1 = DDR1 (Homo sapiens, UniProt Q08345)
EIF2AK1 = EIF2AK1 (Homo sapiens, UniProt Q9BQI3)
EPHB3 = EPHB3 (Homo sapiens, UniProt P54753)
GSK3B = GSK3B (Homo sapiens, UniProt P49841)
HIPK1 = HIPK1 (Homo sapiens, UniProt Q86Z02)
HIPK3 = HIPK3 (Homo sapiens, UniProt Q9H422)
KIT = KIT (Homo sapiens, UniProt P10721)
LIMK2 = LIMK2 (Homo sapiens, UniProt P53671)
LRRK2 = LRRK2 (Homo sapiens, UniProt Q5S007)
MASTL = MASTL (Homo sapiens, UniProt Q96GX5)
MKNK2 = MKNK2 (Homo sapiens, UniProt Q9HBH9)
PIM1 = PIM1 (Homo sapiens, UniProt P11309)
PRKCA = PRKCA (Homo sapiens, UniProt P17252)
PRKG1 = PRKG1 (Homo sapiens, UniProt Q13976)
TBK1 = TBK1 (Homo sapiens, UniProt Q9UHD2)
TESK1 = TESK1 (Homo sapiens, UniProt Q15569)
YWHAG = YWHAG (Homo sapiens, UniProt P61981)

Measured: IC50

Sequence of LIMK2 (P53671 whole entry): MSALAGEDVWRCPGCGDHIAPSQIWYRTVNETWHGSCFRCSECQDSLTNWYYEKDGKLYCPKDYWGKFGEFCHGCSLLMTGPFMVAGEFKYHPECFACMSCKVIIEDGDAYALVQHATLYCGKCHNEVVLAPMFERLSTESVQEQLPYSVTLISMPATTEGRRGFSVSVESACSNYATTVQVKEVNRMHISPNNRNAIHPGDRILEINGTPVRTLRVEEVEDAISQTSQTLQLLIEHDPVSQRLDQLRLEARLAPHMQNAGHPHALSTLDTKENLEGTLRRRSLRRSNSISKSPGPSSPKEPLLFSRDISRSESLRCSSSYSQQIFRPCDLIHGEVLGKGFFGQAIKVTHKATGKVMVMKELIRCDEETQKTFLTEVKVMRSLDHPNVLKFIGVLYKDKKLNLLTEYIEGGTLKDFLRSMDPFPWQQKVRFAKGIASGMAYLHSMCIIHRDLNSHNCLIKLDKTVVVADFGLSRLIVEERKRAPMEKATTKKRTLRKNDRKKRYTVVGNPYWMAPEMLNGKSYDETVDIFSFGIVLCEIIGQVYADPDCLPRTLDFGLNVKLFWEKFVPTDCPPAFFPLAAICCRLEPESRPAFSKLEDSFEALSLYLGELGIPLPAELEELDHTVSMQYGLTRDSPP
Sequence of GSK3B (P49841 whole entry): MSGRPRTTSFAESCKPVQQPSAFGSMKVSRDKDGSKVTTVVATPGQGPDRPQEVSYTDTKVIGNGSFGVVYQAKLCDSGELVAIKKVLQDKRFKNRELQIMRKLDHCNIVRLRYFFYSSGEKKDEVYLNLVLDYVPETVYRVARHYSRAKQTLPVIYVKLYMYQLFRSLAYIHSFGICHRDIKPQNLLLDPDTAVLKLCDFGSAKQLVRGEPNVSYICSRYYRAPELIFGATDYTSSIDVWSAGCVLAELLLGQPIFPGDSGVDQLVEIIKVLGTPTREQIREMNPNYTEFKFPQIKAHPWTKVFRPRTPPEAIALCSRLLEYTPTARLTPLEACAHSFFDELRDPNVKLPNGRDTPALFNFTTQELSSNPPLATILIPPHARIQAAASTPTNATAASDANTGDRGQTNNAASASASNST
Sequence of HIPK1 (Q86Z02 whole entry): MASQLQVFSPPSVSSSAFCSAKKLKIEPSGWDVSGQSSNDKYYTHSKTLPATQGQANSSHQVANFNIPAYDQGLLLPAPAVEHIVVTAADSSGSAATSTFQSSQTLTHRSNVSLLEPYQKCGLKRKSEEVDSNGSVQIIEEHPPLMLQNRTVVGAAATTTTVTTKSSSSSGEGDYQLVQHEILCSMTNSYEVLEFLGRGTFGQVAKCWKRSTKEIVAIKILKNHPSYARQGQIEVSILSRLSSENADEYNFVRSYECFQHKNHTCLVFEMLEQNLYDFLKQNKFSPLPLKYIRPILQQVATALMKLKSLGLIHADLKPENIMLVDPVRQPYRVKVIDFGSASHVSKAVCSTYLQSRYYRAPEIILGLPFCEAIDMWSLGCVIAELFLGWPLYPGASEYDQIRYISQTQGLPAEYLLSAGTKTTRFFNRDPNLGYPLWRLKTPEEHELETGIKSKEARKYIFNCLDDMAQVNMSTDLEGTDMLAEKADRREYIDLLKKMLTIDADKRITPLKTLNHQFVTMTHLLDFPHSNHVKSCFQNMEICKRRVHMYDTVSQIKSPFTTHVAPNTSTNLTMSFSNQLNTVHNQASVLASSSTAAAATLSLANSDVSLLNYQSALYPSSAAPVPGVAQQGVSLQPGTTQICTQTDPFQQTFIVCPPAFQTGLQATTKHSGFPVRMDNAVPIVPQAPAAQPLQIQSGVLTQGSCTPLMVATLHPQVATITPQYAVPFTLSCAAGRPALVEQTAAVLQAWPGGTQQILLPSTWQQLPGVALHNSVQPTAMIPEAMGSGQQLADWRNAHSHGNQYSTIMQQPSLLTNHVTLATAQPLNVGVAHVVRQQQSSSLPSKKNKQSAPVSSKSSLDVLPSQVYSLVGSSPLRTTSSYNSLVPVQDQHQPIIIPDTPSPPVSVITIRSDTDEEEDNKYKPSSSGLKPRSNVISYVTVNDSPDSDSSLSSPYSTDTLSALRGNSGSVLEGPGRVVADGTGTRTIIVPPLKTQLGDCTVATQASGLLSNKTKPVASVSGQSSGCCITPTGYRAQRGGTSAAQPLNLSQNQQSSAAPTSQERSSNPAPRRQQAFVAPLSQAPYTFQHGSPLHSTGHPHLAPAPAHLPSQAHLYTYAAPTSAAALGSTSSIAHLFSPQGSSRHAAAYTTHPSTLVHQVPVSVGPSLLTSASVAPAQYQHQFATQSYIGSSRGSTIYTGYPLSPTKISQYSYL
Sequence of MKNK2 (Q9HBH9 whole entry): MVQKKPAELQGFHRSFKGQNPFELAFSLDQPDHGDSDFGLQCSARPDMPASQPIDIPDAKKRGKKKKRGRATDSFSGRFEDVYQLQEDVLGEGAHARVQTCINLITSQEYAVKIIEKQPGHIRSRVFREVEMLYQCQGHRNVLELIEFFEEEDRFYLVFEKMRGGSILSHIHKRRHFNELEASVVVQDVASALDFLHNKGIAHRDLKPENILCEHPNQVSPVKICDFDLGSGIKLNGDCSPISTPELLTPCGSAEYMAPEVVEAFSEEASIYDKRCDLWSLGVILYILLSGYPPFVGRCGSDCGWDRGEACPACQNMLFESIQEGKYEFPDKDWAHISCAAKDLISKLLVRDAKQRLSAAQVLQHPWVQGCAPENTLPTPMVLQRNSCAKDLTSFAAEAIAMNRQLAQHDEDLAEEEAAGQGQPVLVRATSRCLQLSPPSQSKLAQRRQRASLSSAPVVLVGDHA
Sequence of TBK1 (Q9UHD2 whole entry): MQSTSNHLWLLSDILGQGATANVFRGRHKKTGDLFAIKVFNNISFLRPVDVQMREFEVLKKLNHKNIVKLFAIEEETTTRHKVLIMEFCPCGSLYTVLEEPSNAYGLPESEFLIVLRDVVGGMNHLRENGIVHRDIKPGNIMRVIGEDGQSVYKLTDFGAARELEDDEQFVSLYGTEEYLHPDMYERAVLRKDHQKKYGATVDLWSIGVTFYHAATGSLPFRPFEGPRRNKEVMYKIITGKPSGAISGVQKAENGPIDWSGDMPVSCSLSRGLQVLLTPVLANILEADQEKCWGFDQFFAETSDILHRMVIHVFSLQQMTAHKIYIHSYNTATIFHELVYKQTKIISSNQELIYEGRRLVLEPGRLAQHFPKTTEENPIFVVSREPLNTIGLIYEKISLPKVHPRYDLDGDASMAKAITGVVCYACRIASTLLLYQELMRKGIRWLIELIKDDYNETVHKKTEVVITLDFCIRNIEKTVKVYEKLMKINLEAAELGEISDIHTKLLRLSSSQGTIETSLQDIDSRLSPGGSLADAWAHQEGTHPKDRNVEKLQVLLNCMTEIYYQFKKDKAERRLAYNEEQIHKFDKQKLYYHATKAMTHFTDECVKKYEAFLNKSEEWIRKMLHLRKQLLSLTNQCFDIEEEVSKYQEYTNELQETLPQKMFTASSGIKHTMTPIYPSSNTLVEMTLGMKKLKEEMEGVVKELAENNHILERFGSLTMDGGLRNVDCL
Sequence of CDKL5 (O76039 whole entry): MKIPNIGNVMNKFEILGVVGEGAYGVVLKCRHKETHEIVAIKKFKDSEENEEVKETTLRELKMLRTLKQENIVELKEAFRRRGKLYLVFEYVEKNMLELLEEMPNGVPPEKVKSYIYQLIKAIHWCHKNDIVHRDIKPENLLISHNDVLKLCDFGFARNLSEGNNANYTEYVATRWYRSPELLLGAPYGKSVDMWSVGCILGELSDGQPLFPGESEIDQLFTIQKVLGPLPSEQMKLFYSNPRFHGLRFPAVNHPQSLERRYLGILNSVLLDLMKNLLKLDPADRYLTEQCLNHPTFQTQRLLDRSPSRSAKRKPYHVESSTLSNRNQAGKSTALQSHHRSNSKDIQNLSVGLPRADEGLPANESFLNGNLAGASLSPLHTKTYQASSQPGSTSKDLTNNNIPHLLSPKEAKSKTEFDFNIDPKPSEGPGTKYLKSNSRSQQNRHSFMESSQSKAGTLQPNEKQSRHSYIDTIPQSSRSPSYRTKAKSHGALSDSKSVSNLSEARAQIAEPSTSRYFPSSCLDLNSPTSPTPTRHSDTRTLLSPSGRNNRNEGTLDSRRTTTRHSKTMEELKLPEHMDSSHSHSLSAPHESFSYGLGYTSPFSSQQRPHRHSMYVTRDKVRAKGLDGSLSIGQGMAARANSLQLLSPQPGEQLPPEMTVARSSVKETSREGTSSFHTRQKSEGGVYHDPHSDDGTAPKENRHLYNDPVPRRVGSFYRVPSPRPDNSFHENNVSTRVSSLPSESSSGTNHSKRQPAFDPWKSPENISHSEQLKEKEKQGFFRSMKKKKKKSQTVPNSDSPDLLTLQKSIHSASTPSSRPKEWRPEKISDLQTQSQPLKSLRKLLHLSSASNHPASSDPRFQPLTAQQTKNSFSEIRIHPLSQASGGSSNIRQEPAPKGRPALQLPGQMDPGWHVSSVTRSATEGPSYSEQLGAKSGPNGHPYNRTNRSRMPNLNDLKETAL
Sequence of ARAF (P10398 whole entry): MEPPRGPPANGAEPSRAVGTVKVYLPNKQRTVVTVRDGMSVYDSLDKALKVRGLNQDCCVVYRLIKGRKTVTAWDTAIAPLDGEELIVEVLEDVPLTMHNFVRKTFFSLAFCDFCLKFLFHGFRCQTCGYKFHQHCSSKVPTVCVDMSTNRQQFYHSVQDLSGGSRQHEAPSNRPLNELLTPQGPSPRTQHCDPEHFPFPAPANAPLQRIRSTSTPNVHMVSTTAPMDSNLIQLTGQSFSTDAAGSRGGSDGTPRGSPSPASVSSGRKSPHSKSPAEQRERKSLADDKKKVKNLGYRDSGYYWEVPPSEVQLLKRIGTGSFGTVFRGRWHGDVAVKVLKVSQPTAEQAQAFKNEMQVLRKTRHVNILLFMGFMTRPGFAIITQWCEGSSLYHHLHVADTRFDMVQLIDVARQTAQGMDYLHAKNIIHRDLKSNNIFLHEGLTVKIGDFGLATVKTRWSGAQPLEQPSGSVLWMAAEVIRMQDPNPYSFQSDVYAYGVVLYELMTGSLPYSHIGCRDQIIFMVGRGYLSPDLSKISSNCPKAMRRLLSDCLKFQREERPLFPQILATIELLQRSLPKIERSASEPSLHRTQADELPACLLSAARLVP

COc1nc(N[C@H]2CC[C@H](NS(=O)(=O)CC(C)C)CC2)nc2[nH]nc(N3CCOC[C@H]3C)c12 [compound 39, N-(trans-4-((4-Methoxy-3-((R)-3-methylmorpholino)-1H-pyrazolo[3,4-d]pyrimidin-6-yl)amino)cyclohexyl)-2-methylpropane-1-sulfonamide]
≥ 20 µM: all assays above
